According to patent EP0450065A1, “ANTIVIRAL AGENT” (priority 1988, dated 1990):
Where two headings read alike, the source gives them in different places.

How the values were obtained:
Assay type in all cases: cell-based
[1] = test system: herpes simplex virus type 1 (HF strain); test: Control of CPE (cytopathic effect) manifestation in vero cells; set-up: key to Cytopathic effect [CPE] (3days) Average / Cytopathic effect [CPE] (5days) Average / Cytopathic effect [CPE] (6days) Average: CPE score: 0 none, 0.5 minute spots, 1 = 25%, 2 = 50%, 3 = ≥75% cells; key to Cytopathic effect [CPE] (3days) △CPE / Cytopathic effect [CPE] (5days) △CPE / Cytopathic effect [CPE] (3days) ΔCPE / Cytopathic effect [CPE] (6days) ΔCPE: ΔCPE = difference of average CPE score (0–3 scale) from control; settings: 20 μg/ml, HSV-1 (HF strain), Example 5; for Cytopathic effect [CPE] (3days) ΔCPE / Cytopathic effect [CPE] (6days) ΔCPE: difference from control
Description: (§1) In vitro antiviral activity of Compound A against herpes simplex virus type 1 (HF strain) Compound A was tested for antiviral effect by the following two methods.
(§2) Vero cells cultured and grown in a monolayer on microplates to test for cytopathic effect due to viral infection, with solutions of Compound A diluted to varying ratios and solutions of virus diluted to varying ratios added severally thereto in a volume of 0.1 ml, were cultured under the conditions of 5% CO₂ and 37°C and were examined for CPE manifestation under a microscope. The observation was continued for five to six days.
(§3) The degree of CPE brought about by viral infection was rated on the five-point scale, wherein 3 stands for CPE observed on not less than 75% of cultured cells, 2 for CPE observed on 50% of cultured cells, 1 for CPE observed on 25% of cultured cells, 0.5 for occurrence of one to two extremely minute DPE spots, and 0 for perfect absence of recognizable CPE. The CPE scores obtained at the four holes in each microplate were averaged and the difference of the average from the average obtained in the control (omitting the treatment with a chemical) was reported as ΔCPE.
(§4) In vitro antiviral effect of Compound A against herpes simplex virus type 1 (HF strain) The test was carried out by following the procedure of Example 3.

[2] = test system: herpes simplex virus type 1 (HF strain); test: 50% Tissue culture infective dose (TCID50), Read-Munch method, negative logarithm of virus dilution
Description: as §1
(§5) The amount of virus infecting 50% of tissues (TCID₅₀) was determined by the Read-Munch method and expressed in negative logarithm of the maximum radio of dilution of virus. The difference of the amount thus determined from the amount found in the control (omitting the treatment with a chemical) was reported as ΔTCID₅₀. A sample whose ΔCPE's found on the last day of observation and on each of the days spent for the observation exceeded 1.0 was evaluated as effective.
as §4

[3] = test system: herpes simplex virus type 2 (169 strain); test: Control of CPE (cytopathic effect) manifestation in vero cells; set-up: key to Cytopathic effect [CPE] (3days) Average / Cytopathic effect [CPE] (5days) Average / Cytopathic effect [CPE] (6days) Average: CPE score 0-3: 3 = ≥75% cells, 2 = 50%, 1 = 25%, 0 = none; key to Cytopathic effect [CPE] (3days) △CPE / Cytopathic effect [CPE] (5days) △CPE / Cytopathic effect [CPE] (6days) △CPE: difference of mean CPE score (0-3 scale) from untreated control; settings: 20 μg/ml, HSV-2 (169), Example 6; for Cytopathic effect [CPE] (3days) △CPE / Cytopathic effect [CPE] (6days) △CPE: difference from control
Description: as §2, §3
(§6) In vitro antiviral activity of Compound A against herpes simplex virus type 2 (169 strain) The test was carried out by following the procedure of Example 3.

[4] = test system: herpes simplex virus type 2 (169 strain); test: 50% Tissue culture infective dose (TCID50), Read-Munch method, negative logarithm of virus dilution; set-up: key to Cytopathic effect [CPE] (5days) △TCID50 / Cytopathic effect [CPE] (6days) △TCID50 / Cytopathic effect [CPE] (3days) △TCID50: difference in -log TCID50 from untreated control; key to Cytopathic effect [CPE] (5days) TCID50 / Cytopathic effect [CPE] (3days) TCID50 / Cytopathic effect [CPE] (6days) TCID50: negative log of maximum virus dilution infecting 50% of tissues; settings: HSV-2 (169), Example 6
Description: as §5, §6

[5] = test system: herpes simplex virus type 1 (KOS strain); test: Control of CPE (cytopathic effect) manifestation in vero cells; settings: 30 μg/ml, HSV-1 (KOS), Example 7; for Cytopathic effect [CPE] (3days) △CPE / Cytopathic effect [CPE] (5days) △CPE: difference from control
Description: as §2, §3
(§7) Antiviral activity of Compound A and Compound B against herpes simplex virus type 1 (KOS strain) The test was carried out by following the procedure of Example 3.

[6] = test system: herpes simplex virus type 1 (KOS strain); test: 50% Tissue culture infective dose (TCID50), Read-Munch method, negative logarithm of virus dilution; set-up: key to Cytopathic effect [CPE] (5days) TCID50 / Cytopathic effect [CPE] (3days) TCID50: TCID50 as negative log of maximum virus dilution ratio
Description: as §5, §7

[7] = test system: herpes simplex virus type 1 (KOS strain); test: One-step growth of virus, plaque assay with vero cells; settings: 30 μg/ml, 24 hours; for inhibition at 30 µg/mL / log reduction at 30 µg/mL: Human alphaherpesvirus 1, Vero; for inhibition at 30 µg/mL: read-out: Intracellular virus Control ratio %; for log reduction at 30 µg/mL: read-out: Intracellular virus Control ratio -logT/C
Description: Antiviral activity of Compound A and Compound B against one-step growth of herpes simplex virus type 1 (KOS strain) Cells grown in a monolayer, with a sample of a given compound diluted in a varying ratio added, were pretreated for 15 minutes. Then, the pretreated cells were infected with the herpes simplex virus type 1 (KOS strain) at an infecting ratio of 0.25 and left standing for 24 hours. At the end of the standing, the intracellular and extracellular amounts of virus were determined by the plaque assay with vero cells.

[8] = 20 μg/ml, HSV-1 (HF strain), Example 5
[9] = Human alphaherpesvirus 1, 72 h, read-out: Cytopathic effect [CPE] (3days) ΔTCID50
[10] = Human alphaherpesvirus 1, 144 h, read-out: Cytopathic effect [CPE] (6days) ΔTCID50
[11] = 30 μg/ml, HSV-1 (KOS), Example 7

Row | Structure (SMILES) | Cytopathic effect [CPE] (3days) Average [1] | Cytopathic effect [CPE] (6days) Average [1] | Cytopathic effect [CPE] (3days) ΔCPE [1] | Cytopathic effect [CPE] (6days) ΔCPE [1] | Cytopathic effect [CPE] (3days) TCID50 [2, 8] | Cytopathic effect [CPE] (6days) TCID50 [2, 8] | log reduction at 20 µg/mL [2, 9] | log reduction at 20 µg/mL [2, 10] | Cytopathic effect [CPE] (3days) Average [3] | Cytopathic effect [CPE] (6days) Average [3] | Cytopathic effect [CPE] (3days) △CPE [3] | Cytopathic effect [CPE] (6days) △CPE [3] | Cytopathic effect [CPE] (3days) TCID50 ([4]; 20 μg/ml) | Cytopathic effect [CPE] (6days) TCID50 ([4]; 20 μg/ml) | Cytopathic effect [CPE] (3days) Average [5] | Cytopathic effect [CPE] (5days) Average [5] | Cytopathic effect [CPE] (3days) △CPE [5] | Cytopathic effect [CPE] (5days) △CPE [5] | Cytopathic effect [CPE] (3days) TCID50 [6, 11] | Cytopathic effect [CPE] (5days) TCID50 [6, 11] | further results
1 | O=c1[nH]c(=O)n([C@H]2C[C@H](O)[C@@H](CO)O2)cc1I [IDU, reference compound] | 2.25 | 3.0 | 0.5 | 0 | 6.3 | 6.5 | 0 | -0.2 | 0.75 | 1.25 | 1.75 | 1.75 | 5.3 | 5.5 | 1.0 | 2.0 | 1.0 | 1.0 | 5.3 | 6.0 | log reduction at 20 µg/mL ([4]; Human alphaherpesvirus 2, 72 h, 20 μg/ml, difference from control, read-out: Cytopathic effect [CPE] (3days) △TCID50): 1.4; log reduction at 30 µg/mL ([6]; Human alphaherpesvirus 1, 72 h, 30 μg/ml, HSV-1 (KOS), Example 7, difference from control, read-out: Cytopathic effect [CPE] (3days) △TCID50): 0.2; log reduction at 30 µg/mL ([6]; Human alphaherpesvirus 1, 120 h, 30 μg/ml, HSV-1 (KOS), Example 7, difference from control, read-out: Cytopathic effect [CPE] (5days) △TCID50): 0.3; Intracellular virus Average ([7]; extracellular virus): 7.50×10^3 /dish; Intracellular virus Average [7]: 1.00×10^6 /dish; inhibition at 30 µg/mL ([7]; 24 h, extracellular virus): > 99.9%; log reduction at 30 µg/mL ([7]; 24 h, extracellular virus): 3.6; inhibition at 30 µg/mL ([7]; 24 h): 99.8%; log reduction at 30 µg/mL ([7]; 24 h): 2.61
2 | Nc1ncnc2c1ncn2[C@@H]1O[C@H](CO)[C@@H](O)[C@@H]1O [Ara A, adenine arabinoside, reference compound] | 2.5 | 3.0 | 0.25 | 0 | 6.5 | 6.5 | -0.2 | -0.2 | 0.5 | 3.0 | 1.0 | 0 | 7.0 | 7.5 | 1.0 | 2.0 | 1.0 | 1.0 | 5.0 | 5.7 | Cytopathic effect [CPE] (6days) ΔTCID50 ([2]; 20 μg/ml, HSV-1 (HF strain), Example 5, difference from control): no discernible antiviral effect; Cytopathic effect [CPE] (6days) △TCID50 ([4]; 20 μg/ml, difference from control): nil; log reduction at 20 µg/mL ([4]; Human alphaherpesvirus 2, 72 h, read-out: Cytopathic effect [CPE] (3days) △TCID50, 20 μg/ml, difference from control): -0.3; log reduction at 20 µg/mL ([4]; Human alphaherpesvirus 2, 144 h, read-out: Cytopathic effect [CPE] (6days) △TCID50, 20 μg/ml, difference from control): -0.8; log reduction at 30 µg/mL ([6]; Human alphaherpesvirus 1, 72 h, read-out: Cytopathic effect [CPE] (3days) △TCID50): 0.5; log reduction at 30 µg/mL ([6]; Human alphaherpesvirus 1, 120 h, read-out: Cytopathic effect [CPE] (5days) △TCID50): 0.3; Intracellular virus Average ([7]; extracellular virus): 3.93×10^3 /dish; Intracellular virus Average [7]: 7.38×10^4 /dish; log reduction at 30 µg/mL ([7]; 24 h, extracellular virus): 3.88; log reduction at 30 µg/mL ([7]; 24 h): 4.74; inhibition at 30 µg/mL [7]: > 99.9%
